The results in this text go back to patent publication US8026218B2, “Bifunctional analgesic compounds for opioid receptor agonists and neurokinin-1 receptor antagonists” (The University of Arizona, priority 2006, dated 2011).

For assay [1], the target named is T1, human δ opioid receptors (hDOR) (Homo sapiens, UniProt P41143).
T1 construct: expressed in transfected cells; host or cells: HN9.10 neuroblastoma cell line, pCDNA3, neomycin-selected clones
Put plainly: Radioligand competition binding, [3H]DPDPE, hDOR membranes. (Displacement assays read how much labelled ligand stays bound in the presence of the test substance.)

Assay [2] has as its target T2, human NK1 receptor (hNK1) (Homo sapiens, UniProt P25103).
T2 construct: expressed in transfected cells
The experiment in a line: Radioligand competition binding, [3H]-Substance P, hNK1. The conditions noted are these: read-out: Affinity hNK1 (Ki; nM).

Another assay has as its system μ opioid receptors (GPI). The experiment in a line: Guinea pig isolated ileum (GPI) assay, opioid agonist.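 Note: inhibition of electrically evoked contractions (0.1 Hz, 0.4 msec, supramaximal voltage) in organ baths at 37 °C, contraction height 3 min after each cumulative dose versus the 1 min before dosing.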 Further details: GPI/LMMP Opioid(m) Agonist, % inh.: unit of the concentration uncertain.
For a further assay, the target named is T3, δ opioid receptors (MVD) (Mus musculus, UniProt P32300).
T3 construct: from tissue; host or cells: mouse (ICR) isolated vas deferens
Put plainly: Mouse isolated vas deferens (MVD) assay, opioid agonist.

Assay [3] has as its target T4, Substance P receptors (guinea pig NK1) (Cavia porcellus, UniProt P30547).
T4 construct: from tissue; host or cells: guinea pig (Hartley) ileum LMMP, 1 μM naloxone present
Put plainly: Guinea pig isolated ileum (GPI) assay with substance P stimulation in presence of 1 μM naloxone.

Assay [4] deals with T5, rat μ opioid receptors (rMOR) (Rattus norvegicus, UniProt P33535).
T5 construct: expressed in transfected cells; host or cells: HN9.10 neuroblastoma cell line, pCDNA3, neomycin-selected clones
Put plainly: Radioligand competition binding, [3H]DAMGO, rMOR membranes.

In assay [5] the target is T1, human δ opioid receptors (hDOR). The experiment in a line: [35S]GTP-γ-S binding assay, hDOR. The class given is biochemical. (In general: GTPγS is a poorly hydrolysed GTP analogue; its binding reports G protein activation.)
For the next assay, the target named is T6, rat NK1 (rNK1) receptor (Rattus norvegicus, UniProt P14600).
T6 construct: expressed in transfected cells; host or cells: CHO (rNK-1/CHO cell line from Dr. James Krause)
Put plainly: Radioligand competition binding, [3H]substance P, rNK1/CHO membranes. The conditions noted are these: for IC50: membranes from transfected CHO cells.

Assay [6] deals with T5, rat μ opioid receptors (rMOR). The experiment in a line: biochemical. The class given is biochemical.
Setting [7] is: membranes from transfected HN9.10 cells.

As usually defined, the Ki is a dissociation constant, usually derived from enzyme kinetics or from competition with a known ligand. What is called Kb is the equilibrium dissociation constant of an antagonist, usually derived from a functional assay. As usually defined, the EC50 is the concentration at which the effect is half-maximal. What is called Emax is the maximal effect, on the per cent scale that the assay sets.

Read-outs that look alike come from different tables or passages of the source. Peptide text beside a SMILES is read from it.

T5 sequence (P33535 whole entry): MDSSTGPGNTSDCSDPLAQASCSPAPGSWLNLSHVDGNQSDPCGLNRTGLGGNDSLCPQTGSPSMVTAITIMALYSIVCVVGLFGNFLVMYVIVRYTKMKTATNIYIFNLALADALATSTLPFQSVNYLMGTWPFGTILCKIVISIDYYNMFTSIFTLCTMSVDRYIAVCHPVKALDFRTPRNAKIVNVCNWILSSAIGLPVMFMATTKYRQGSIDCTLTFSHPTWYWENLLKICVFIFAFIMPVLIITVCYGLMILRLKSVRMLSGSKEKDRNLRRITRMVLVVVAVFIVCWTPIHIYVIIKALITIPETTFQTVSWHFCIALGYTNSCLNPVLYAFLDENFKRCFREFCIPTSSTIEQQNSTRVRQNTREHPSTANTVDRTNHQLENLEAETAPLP
T1 sequence (P41143 whole entry): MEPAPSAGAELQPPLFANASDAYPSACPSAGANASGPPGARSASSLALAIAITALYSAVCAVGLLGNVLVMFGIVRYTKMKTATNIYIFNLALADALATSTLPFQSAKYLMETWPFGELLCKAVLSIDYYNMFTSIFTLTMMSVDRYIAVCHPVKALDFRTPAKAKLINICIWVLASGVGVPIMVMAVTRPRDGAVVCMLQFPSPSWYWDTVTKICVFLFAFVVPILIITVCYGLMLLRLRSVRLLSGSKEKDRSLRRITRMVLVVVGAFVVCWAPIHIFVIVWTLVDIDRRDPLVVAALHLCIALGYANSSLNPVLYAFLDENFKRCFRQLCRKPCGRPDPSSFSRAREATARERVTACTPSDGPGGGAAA
T4 sequence (P30547 whole entry): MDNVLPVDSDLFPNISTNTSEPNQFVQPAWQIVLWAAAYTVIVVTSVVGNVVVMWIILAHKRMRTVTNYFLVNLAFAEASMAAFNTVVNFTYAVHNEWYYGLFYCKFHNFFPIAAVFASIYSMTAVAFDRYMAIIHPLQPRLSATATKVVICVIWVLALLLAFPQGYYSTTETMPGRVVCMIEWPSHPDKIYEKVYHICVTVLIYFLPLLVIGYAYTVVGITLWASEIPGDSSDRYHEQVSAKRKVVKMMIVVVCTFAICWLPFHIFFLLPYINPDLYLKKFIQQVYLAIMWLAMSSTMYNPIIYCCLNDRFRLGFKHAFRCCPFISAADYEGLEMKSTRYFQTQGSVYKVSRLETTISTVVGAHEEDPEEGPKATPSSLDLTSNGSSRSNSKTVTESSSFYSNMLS
T6 sequence (P14600 whole entry): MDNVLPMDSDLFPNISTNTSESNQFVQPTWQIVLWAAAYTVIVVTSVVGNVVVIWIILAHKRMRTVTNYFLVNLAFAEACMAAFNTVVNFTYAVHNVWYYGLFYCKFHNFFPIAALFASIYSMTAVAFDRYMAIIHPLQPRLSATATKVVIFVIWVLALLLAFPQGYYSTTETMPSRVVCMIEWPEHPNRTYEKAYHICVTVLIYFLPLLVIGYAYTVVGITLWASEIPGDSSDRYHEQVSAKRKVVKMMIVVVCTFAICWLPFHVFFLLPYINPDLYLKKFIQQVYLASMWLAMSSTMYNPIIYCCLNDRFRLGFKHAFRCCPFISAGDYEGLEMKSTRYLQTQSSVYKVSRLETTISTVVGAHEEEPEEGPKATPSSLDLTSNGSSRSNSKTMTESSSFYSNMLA
T3 sequence (P32300 whole entry): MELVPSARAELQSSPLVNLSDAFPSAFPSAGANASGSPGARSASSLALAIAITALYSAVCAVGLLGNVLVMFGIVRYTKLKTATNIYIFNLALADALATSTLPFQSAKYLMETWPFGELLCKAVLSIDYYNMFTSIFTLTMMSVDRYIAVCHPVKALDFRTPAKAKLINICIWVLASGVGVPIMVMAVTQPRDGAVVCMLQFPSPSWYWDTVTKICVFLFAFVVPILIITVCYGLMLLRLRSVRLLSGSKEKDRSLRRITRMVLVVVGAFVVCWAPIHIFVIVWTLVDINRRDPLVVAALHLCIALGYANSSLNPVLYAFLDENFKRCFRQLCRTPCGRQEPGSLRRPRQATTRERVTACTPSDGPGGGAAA
T2 sequence (P25103 whole entry): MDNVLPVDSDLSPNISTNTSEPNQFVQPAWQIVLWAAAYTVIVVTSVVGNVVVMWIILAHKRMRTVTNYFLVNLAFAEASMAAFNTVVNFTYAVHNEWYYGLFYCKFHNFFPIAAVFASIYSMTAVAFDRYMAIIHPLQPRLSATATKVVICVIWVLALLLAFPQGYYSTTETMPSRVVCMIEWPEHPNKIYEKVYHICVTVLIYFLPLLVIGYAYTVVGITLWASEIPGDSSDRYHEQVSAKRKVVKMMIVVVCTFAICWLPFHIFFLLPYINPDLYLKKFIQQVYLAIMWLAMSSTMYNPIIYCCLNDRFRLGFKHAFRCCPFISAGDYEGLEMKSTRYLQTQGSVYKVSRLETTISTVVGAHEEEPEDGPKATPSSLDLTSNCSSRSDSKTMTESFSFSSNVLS

`CCCC[C@H](NC(=O)[C@H](Cc1ccccc1)NC(=O)CNC(=O)[C@@H](C)NC(=O)[C@@H](N)Cc1c(C)cc(O)cc1C)C(=O)N1CCC[C@H]1C(=O)N[C@@H](CC(C)C)C(=O)N[C@@H](Cc1c[nH]c2ccccc12)C(=O)N(C)Cc1cc(C(F)(F)F)cc(C(F)(F)F)c1` [TY052]: the Ki in assay [1] (Table 31, read-out: Affinity hDOR (Ki; nM)) turned out to be 0.46 nM; in [1] (Table 39, read-out: Affinity hDOR (Ki; nM)) it was 0.46 nM; in [2] (Table 31) it was 0.21 nM; in assay [2] (Table 39), 0.21 nM.

Turning to `CC(C)C[C@H](NC(=O)[C@@H]1CCCN1C(=O)[C@H](Cc1ccccc1)NC(=O)[C@H](Cc1ccccc1)NC(=O)CNC(=O)[C@@H](C)NC(=O)[C@@H](N)Cc1ccc(O)cc1)C(=O)N[C@@H](Cc1c[nH]c2ccccc12)C(=O)OCc1cc(C(F)(F)F)cc(C(F)(F)F)c1` [TY003, H-Tyr-D-Ala-Gly-Phe-Phe-Pro-Leu-Trp-O-3,5-Bzl(CF3)2], the Ki in assay [1] was determined as 14.6 nM; in [4] (Table 27, read-out: Affinity rMOR (Ki; nM)) it was 28.3 nM; in [4] (Table 39, read-out: Affinity rMOR (Ki; nM)) it was 28.3 nM; in [4] (read-out: Ki, rMOR, [3H]DAMGO), 28.3 nM. For the same compound, the “Ki(μ)/Ki(δ)” value in assay [1] (binding, rMOR vs hDOR) amounted to 1.9; in assay [5] it was 2.8. Besides, the “LogIC50, hDOR, [3H]DPDPE” value in [1] (setting [7]) is −7.50 ± 0.14. In addition, the “GPI/LMMP Opioid(m) Agonist, % inh.” value in the assay with μ opioid receptors (GPI) (Table 28, at 1 (unit uncertain)) is recorded as 7% inh. at 1 mM. Moreover, the “GPI/LMMP opioid(mu) Antagonist” value in the assay on μ opioid receptors (GPI) (Table 39) is “none”. In addition, in the assay with μ opioid receptors (GPI) (Table 39, at 1 uM), the “GPI/LMMP opioid(mu) agonist, % at 1 uM” value is recorded as 6.6% @ 1 uM. In addition, the “GPI (μ), effect at single concentration” value in the assay on μ opioid receptors (GPI) (at 1 μM) stood at 7% at 1 μM^b. For the same compound, the IC50 at δ opioid receptors (MVD) (Table 28, read-out: MVD Opioid (d) Agonist (IC50; nM)) is 905 nM; on δ opioid receptors (MVD) (Table 39, read-out: MVD opioid(delta) agonist (IC50; nM)), 905 nM; on δ opioid receptors (MVD) (electrically stimulated isolated tissue, read-out: MVD (δ), IC50), 905 ± 186 nM; at rat NK1 (rNK1) receptor (IC50, rNK1, Substance P radioligand), 19.3 nM; on rat NK1 (rNK1) receptor (LogIC50, rNK1, Substance P radioligand) it was 19.1 nM. For the same compound, in assay [3] (Substance P antagonist, GPI, Ke, in the presence of 1 μM naloxone), the antagonist equilibrium constant (Kb) came to 14.4 ± 4.9 nM. Besides, the “GPI/LMMP SP Agonist (IC50; nM)” value in [3] (Table 39, concentration not given) is listed as “none”. Also, the activation at 1 µM in [3] (read-out: Substance P GPI agonist (A50), at 1 μM, contraction relative to initial muscle contraction with KCl) came out at 0%. Besides, the “LogIC50, rMOR, [3H]DAMGO” value in assay [4] (setting [7]) is given as −7.22 ± 0.10. In addition, in assay [5], the “LogEC50, hDOR, [35S]GTP-γ-S binding” value is reported as −7.68 ± 0.20. In addition, the EC50 in assay [5] (read-out: EC50, hDOR, [35S]GTP-γ-S binding) stood at 20.8 nM; in assay [5] (read-out: GTP binding hDOR EC50) it was 20.8 nM; in [6] (Table 27, read-out: GTP binding rMOR EC50) it was 58.7 nM; in [6] (Table 39, read-out: GTP binding rMOR EC50), 58.7 nM; in [6] (read-out: EC50, rMOR, [35S]GTP-γ-S binding), 58.7 nM. The Emax in assay [5] (read-out: Emax, hDOR, [35S]GTP-γ-S binding) is 39%; in [5] (read-out: GTP binding hDOR Emax), 39%; in assay [5] (read-out: GTP binding hDOR Emax (%)), 39%; in [6] (Table 27, read-out: GTP binding rMOR Emax (%)), 36.3%; in assay [6] (Table 39, read-out: GTP binding rMOR Emax), 36.3%; in [6] (net total bound/basal binding × 100, read-out: Emax, rMOR, [35S]GTP-γ-S binding) it was 41%. Moreover, the “LogEC50, rMOR, [35S]GTP-γ-S binding” value in assay [6] was −7.23 ± 0.18.

On to `CC(C)C[C@H](NC(=O)[C@H](Cc1ccccc1)NC(=O)CNC(=O)[C@@H](C)NC(=O)[C@@H](N)Cc1ccc(O)cc1)C(=O)N[C@@H](Cc1c[nH]c2ccccc12)C(=O)OCc1cc(C(F)(F)F)cc(C(F)(F)F)c1` [NP37] (HELM PEPTIDE1{Y.[dA].G.F.L.W.[FC(F)(F)c1cc(CO[*:1])cc(C(F)(F)F)c1]}$$$$V2.0; N-terminus assumed), for which the inhibition constant Ki amounted to 2.9 nM in [1]; 23.3 nM in [4]; 0.29 nM on rat NK1 (rNK1) receptor (Affinity (Ki, nM) rNK1, Table 32). For the same compound, on δ opioid receptors (MVD), the IC50 came to 25.7 nM. The 50% effective concentration (EC50) in assay [5] (Table 32, read-out: GTP hDOR EC50) amounted to 4.8 nM; in assay [6] (Table 32, read-out: GTP rMOR EC50) it was 14 nM. The maximal effect (Emax) stood at 60% in assay [5] (Table 32, read-out: GTP hDOR EMax) and 54% in assay [6] (Table 32, read-out: GTP rMOR EMax).
